This is an account of results in PubChem BioAssay (NCI).

Test systems include OVCAR-8 ovarian; HCT-15 colon; HCC-2998 colon; ACHN renal; A498 renal; SNB-19 CNS; OVCAR-5 ovarian; M14 melanoma; U251 CNS; MCF7 breast; UACC-257 melanoma; NCI/ADR-RES ovarian; CAKI-1 renal; OVCAR-4 ovarian; SW-620 colon; SF-268 CNS; NCI-H226 lung; OVCAR-3 ovarian; KM12 colon; RPMI-8226 leukemia.
Assay in all cases: DTP human tumour cell line panel, 48 h

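Exposure lasted 48 hours, with cells grown in 96-well plates and compounds tested at five concentrations. TGI denotes the concentration required for complete inhibition of growth.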

Consider `COC(=O)c1c[nH]c2c1-c1cc(C(=O)OCc3ccccc3)n(S(=O)(=O)c3ccc(C)cc3)c1C(=O)C2=O`, for which the TGI – broadly, the concentration giving total growth inhibition – with OVCAR-8 ovarian came to 0.927 µM; in the assay on HCT-15 colon, 0.438 µM; in the assay with HCC-2998 colon it was 1.9 µM; in the assay with ACHN renal, 0.761 µM; in the assay with A498 renal, 3.16 µM; in the assay with SNB-19 CNS, 0.505 µM. The total growth inhibition concentration (TGI) in the assay on OVCAR-5 ovarian was 2.9 µM; in the assay with M14 melanoma, 0.289 µM; in the assay with U251 CNS it was 1.13 µM; in the assay with MCF7 breast it was 0.379 µM; in the assay on UACC-257 melanoma it was 0.311 µM; in the assay on NCI/ADR-RES ovarian, 6.01 µM. The TGI in the assay on CAKI-1 renal was determined as 2.65 µM; in the assay with OVCAR-4 ovarian, 1.08 µM; in the assay on SW-620 colon it was 0.576 µM; in the assay on SF-268 CNS it was 2.27 µM; in the assay with NCI-H226 lung it was 0.889 µM; in the assay with OVCAR-3 ovarian, 0.155 µM. In addition, the TGI came out at 0.89 µM in the assay with KM12 colon and 2.83 µM with RPMI-8226 leukemia.

Regarding `O=c1c2cc(I)ccc2nc(SCc2n[nH]c(=S)o2)n1Cc1ccccc1`, the TGI amounted to 40.4 µM in the assay with OVCAR-8 ovarian; 34 µM with HCT-15 colon; 35.3 µM in the assay with HCC-2998 colon; 28.6 µM in the assay on ACHN renal; 34.2 µM in the assay on A498 renal; 55.5 µM with SNB-19 CNS. Further, the total growth inhibition concentration (TGI) in the assay with OVCAR-5 ovarian was determined as 52.4 µM; with M14 melanoma, 43.6 µM; in the assay with U251 CNS, 31.4 µM; in the assay with MCF7 breast, 31.7 µM; in the assay on UACC-257 melanoma it was 38.1 µM; with NCI/ADR-RES ovarian, 54.2 µM. For the same molecule, the TGI came to 22.4 µM in the assay on CAKI-1 renal; 44.4 µM with OVCAR-4 ovarian; 39.6 µM with SW-620 colon; 32.9 µM in the assay with SF-268 CNS; 27.6 µM with NCI-H226 lung; 31.1 µM with OVCAR-3 ovarian. Moreover, the figures for the TGI in the assay with KM12 colon and in the assay on RPMI-8226 leukemia were 40.4 µM and more than 100 µM, respectively.

With `CC(C)(C)OC/C=C1\C(=O)O[C@H]2C[C@@H](O[Si](C)(C)C(C)(C)C)C[C@@H]12`, the TGI with OVCAR-8 ovarian, in the assay with HCT-15 colon, with HCC-2998 colon, with ACHN renal, in the assay on A498 renal and in the assay on SNB-19 CNS was more than 100 µM each time. Besides, the TGI in the assay on OVCAR-5 ovarian, with M14 melanoma, in the assay on U251 CNS, in the assay on MCF7 breast, with UACC-257 melanoma and in the assay on NCI/ADR-RES ovarian was more than 100 µM each time. The TGI with CAKI-1 renal, in the assay on OVCAR-4 ovarian, with SW-620 colon, in the assay on SF-268 CNS, in the assay on NCI-H226 lung and in the assay on OVCAR-3 ovarian was more than 100 µM in each case. For the same molecule, the concentration for total growth inhibition (TGI) in the assay on KM12 colon and with RPMI-8226 leukemia was more than 100 µM each time.

With `O=C1N[C@@H]2c3c(Br)sc(Br)c3C(=O)[C@@H]2O1`, the total growth inhibition concentration (TGI) with OVCAR-8 ovarian came to 4.52 µM; with HCT-15 colon, 4.05 µM; in the assay with HCC-2998 colon it was 10.8 µM; with ACHN renal, 3.48 µM; in the assay with A498 renal it was 30.4 µM; in the assay with SNB-19 CNS it was 30.3 µM. Also, the total growth inhibition concentration (TGI) stood at 27 µM in the assay on OVCAR-5 ovarian; 3.81 µM in the assay with M14 melanoma; 6.1 µM in the assay on U251 CNS; 12.6 µM in the assay with MCF7 breast; 8.76 µM in the assay on UACC-257 melanoma; 18 µM in the assay on NCI/ADR-RES ovarian. Moreover, the total growth inhibition concentration (TGI) in the assay on CAKI-1 renal amounted to 2.37 µM; with OVCAR-4 ovarian it was 3.43 µM; in the assay on SW-620 colon, 4.04 µM; in the assay on SF-268 CNS, 28.7 µM; with NCI-H226 lung, 28.8 µM; in the assay with OVCAR-3 ovarian, 3.38 µM. Further, the values for the concentration for total growth inhibition (TGI) with KM12 colon and with RPMI-8226 leukemia were 26 µM and 25.4 µM, respectively.

Regarding `CN(C)CCn1c(=O)c2ccc3c4c(nn3CCN(C)C)c3cc([N+](=O)[O-])ccc3n(c1=O)c24`, the TGI in the assay on OVCAR-8 ovarian was determined as 0.959 µM; with HCT-15 colon, 0.745 µM; in the assay on HCC-2998 colon, 0.207 µM; with ACHN renal, 0.975 µM; in the assay with A498 renal, 1.68 µM; in the assay on SNB-19 CNS it was 1.08 µM. Also, the concentration for total growth inhibition (TGI) in the assay with OVCAR-5 ovarian was 0.448 µM; in the assay on M14 melanoma it was 1.29 µM; in the assay on U251 CNS it was 2.94 µM; in the assay with MCF7 breast, 0.65 µM; in the assay on UACC-257 melanoma it was 1.99 µM; in the assay on NCI/ADR-RES ovarian, 0.701 µM. The concentration for total growth inhibition (TGI) with CAKI-1 renal turned out to be 0.275 µM; with OVCAR-4 ovarian, 0.223 µM; in the assay on SW-620 colon, 0.979 µM; in the assay with SF-268 CNS it was 0.942 µM; with NCI-H226 lung it was 2.35 µM; in the assay with OVCAR-3 ovarian, 2.26 µM. The TGI was 0.433 µM in the assay with KM12 colon and 0.397 µM in the assay on RPMI-8226 leukemia.

As for `O=C1c2ccccc2CC12Cc1ccccc1C2`, the TGI was more than 100 µM in the assay with OVCAR-8 ovarian; more than 100 µM in the assay with HCT-15 colon; 70.3 µM in the assay with HCC-2998 colon; more than 100 µM in the assay with ACHN renal; more than 100 µM in the assay with A498 renal; more than 100 µM in the assay with SNB-19 CNS. Besides, the total growth inhibition concentration (TGI) is more than 100 µM in the assay on OVCAR-5 ovarian; more than 100 µM with M14 melanoma; more than 100 µM with U251 CNS; more than 100 µM with MCF7 breast; 54.2 µM with UACC-257 melanoma; 89.1 µM in the assay with NCI/ADR-RES ovarian. For the same molecule, the TGI with CAKI-1 renal, with OVCAR-4 ovarian, with SW-620 colon, in the assay with SF-268 CNS, in the assay on NCI-H226 lung and in the assay on OVCAR-3 ovarian was more than 100 µM in each case. Besides, the concentration for total growth inhibition (TGI) with KM12 colon and in the assay on RPMI-8226 leukemia was more than 100 µM each time.

On to `CCCCCCOc1ccc(C(=O)N(C)O)cc1`, for which the concentration for total growth inhibition (TGI) in the assay on OVCAR-8 ovarian is 61 µM; with HCT-15 colon, more than 82.9 µM; in the assay with HCC-2998 colon it was 99 µM; in the assay on ACHN renal, 30.3 µM; in the assay on A498 renal it was more than 100 µM; in the assay on SNB-19 CNS it was more than 100 µM. In addition, the concentration for total growth inhibition (TGI) was more than 100 µM in the assay with OVCAR-5 ovarian; 39.3 µM with M14 melanoma; more than 100 µM with U251 CNS; more than 100 µM in the assay on MCF7 breast; more than 100 µM in the assay with UACC-257 melanoma; 57.1 µM with NCI/ADR-RES ovarian. In addition, the total growth inhibition concentration (TGI) in the assay with CAKI-1 renal is more than 91.2 µM; with OVCAR-4 ovarian it was more than 100 µM; in the assay with SW-620 colon it was more than 100 µM; in the assay with SF-268 CNS, 55.7 µM; in the assay with NCI-H226 lung it was 59.5 µM; in the assay on OVCAR-3 ovarian, more than 100 µM. Moreover, the concentration for total growth inhibition (TGI) in the assay on KM12 colon was more than 100 µM; in the assay on RPMI-8226 leukemia, 46.6 µM.
